Measured values from patent publication EP0255485A2, “Transdermal compositions” (priority 1986, dated 1988).
Structures can show the parent of a compound that is named as a salt. Where two headings read alike, the source gives them in different places.

Experiments:
[1] = for Flux^+: expressed in terms of procaterol hydrochloride, concentration could not be measured; for P Px*: Px = permeability coefficient of the drug from propylene glycol solution
in vitro = conditions: mouse
[2] = Extrapolated delivery through human skin, assuming 1/5 the permeability of mouse skin; type: in vitro ADME
Description: The permeation of the compounds from the mixture of propylene glycol triacetin was negligible. The concentration of each analgesic can be increased to 3% or 4% in the donor solution and corresponding increases in flux can be expected. […] A usual dose for oxymorphone and hydromorphone is about 6 to 10 mg per day in humans.
Assuming the permeability of human skin to be 1/5 that of mouse skin, a daily flux of 0.68 mg can be achieved in man. The maximum daily dose in man is approximated to be 0.2 mg.

[3] = Vehicle LA:TA:PG 20:50:30, Conc'n. 21.57 mg/ml
[4] = LA:PG:TA 5:30:65, 0.5 wt % analgesic, Conc. 5.5 mg/ml
[5] = LA:PG:TA 10:30:60, 0.5 wt % analgesic, Conc. 5.4 mg/ml
[6] = LA:PG:TA 20:30:50, 0.5 wt % analgesic, Conc. 5.3 mg/ml

For `CCC(NC(C)C)C(O)c1ccc(O)c2[nH]c(=O)ccc12` (stereo not drawn) [Procaterol], the Lag Time ([1]; Ratio of LA:TA:PG 5:85:10) was 5.5 h, the “Flux^+” value ([1]; Ratio of LA:TA:PG 5:85:10) was 23.1 ug/cm^2/h and the Lag Time ([1]; Ratio of LA:TA:PG 10:80:10) was 4.8 h. The “Flux^+” value ([1]; Ratio of LA:TA:PG 10:80:10) was 44.2 ug/cm^2/h, the Lag Time ([1]; Ratio of LA:TA:PG 15:75:10) was 4.05 h and the “Flux^+” value ([1]; Ratio of LA:TA:PG 15:75:10) was 53.2 ug/cm^2/h. The Lag Time ([1]; Ratio of LA:TA:PG 20:50:30) was 4.4 h, the “Flux^+” value ([1]; Ratio of LA:TA:PG 20:50:30) was 56.3 ug/cm^2/h and the Lag Time ([1]; Ratio of LA:TA:PG 20:75:5) was 4.8 h. For the same molecule, the “Flux^+” value ([1]; Ratio of LA:TA:PG 20:75:5) was 33.9 ug/cm^2/h, the “Lag Time” value ([1]; Vehicle Ethyl Linoleate:PG:TA 10:5:85, Drug Conc. 0.855 mg/ml) was 6 h and the Flux ([1]; Vehicle Ethyl Linoleate:PG:TA 10:5:85, Drug Conc. 0.855 mg/ml, expressed as procaterol hydrochloride) was 9.60 ug/cm^2/h. The “Lag Time” value ([1]; Vehicle Ethyl Linoleate:TG 10:90, Drug Conc. 12.29 mg/ml) was 8 h, the Flux ([1]; Vehicle Ethyl Linoleate:TG 10:90, Drug Conc. 12.29 mg/ml, expressed as procaterol hydrochloride) was 36.27 ug/cm^2/h and the “Lag Time” value ([1]; Vehicle LA:TA:PG 20:50:30, Procaterol Conc. 40 mg/ml) was 1.26 h. For the same molecule, the Flux ([1]; Vehicle LA:TA:PG 20:50:30, Procaterol Conc. 40 mg/ml, expressed as hydrochloride salt) was 158.6 ug/cm^2/h, the “Lag Time” value ([1]; Vehicle LA:TEC:PG 10:70:20, Drug Conc. 23.03 mg/ml) was 14.7 h and the “Flux*” value ([1]; Vehicle LA:TEC:PG 10:70:20, Drug Conc. 23.03 mg/ml, expressed as hydrochloride salt) was 33.5 ug/cm^2/h. The “Lag Time” value ([1]; Vehicle LA:TEC:PG 10:80:10, Drug Conc. 16.9 mg/ml) was 14.7 h, the “Flux*” value ([1]; Vehicle LA:TEC:PG 10:80:10, Drug Conc. 16.9 mg/ml, expressed as hydrochloride salt) was 32.0 ug/cm^2/h and the “Lag Time” value ([1]; Vehicle LA:TEC:PG 20:50:30, Drug Conc. 4.32 mg/ml) was 11.2 h. The “Flux*” value ([1]; Vehicle LA:TEC:PG 20:50:30, Drug Conc. 4.32 mg/ml, expressed as hydrochloride salt) was 8.5 ug/cm^2/h, the “Lag Time” value ([1]; Vehicle LA:TEC:PG 20:50:30, Drug Conc. 44.7 mg/ml) was 7.3 h and the “Flux*” value ([1]; Vehicle LA:TEC:PG 20:50:30, Drug Conc. 44.7 mg/ml, expressed as hydrochloride salt) was 65.8 ug/cm^2/h. For the same molecule, the “Lag Time” value ([1]; Vehicle LA:TEC:PG 20:60:20, Drug Conc. 19.35 mg/ml) was 4.9 h, the “Flux*” value ([1]; Vehicle LA:TEC:PG 20:60:20, Drug Conc. 19.35 mg/ml, expressed as hydrochloride salt) was 46.0 ug/cm^2/h and the Flux ([1]; Vehicle LNA:PG:TA 20:15:65 (LNA = Linolenic Acid), Drug Conc. 8.15 mg/ml, expressed as procaterol hydrochloride) was 76.27 ug/cm^2/h. For the same molecule, the “Lag Time” value ([1]; Vehicle LNA:PG:TA 20:15:65, Drug Conc. 8.15 mg/ml) was 2 h, the “Lag Time” value ([1]; Vehicle Oleic Acid:PG:TA 20:30:50, Drug Conc. 15.89 mg/ml) was 1.8 h and the Flux ([1]; Vehicle Oleic Acid:PG:TA 20:30:50, Drug Conc. 15.89 mg/ml, expressed as procaterol hydrochloride) was 171.76 ug/cm^2/h. The Papp (in vitro; P, Vehicle Ethyl Linoleate:PG:TA 10:5:85, Drug Conc. 0.855 mg/ml) was 3.12 ×10⁻⁶ cm/s, the Papp (in vitro; P, Vehicle Ethyl Linoleate:TG 10:90, Drug Conc. 12.29 mg/ml) was 0.82 ×10⁻⁶ cm/s and the Papp (in vitro; P, Vehicle LA:TA:PG 20:50:30, Procaterol Conc. 40 mg/ml) was 1.1 ×10⁻⁶ cm/s. It also gave a Papp (in vitro; P, Vehicle LA:TEC:PG 10:70:20, Drug Conc. 23.03 mg/ml) of 0.404 ×10⁻⁶ cm/s, a Papp (in vitro; P, Vehicle LA:TEC:PG 10:80:10, Drug Conc. 16.9 mg/ml) of 0.526 ×10⁻⁶ cm/s and a Papp (in vitro; P, Vehicle LA:TEC:PG 20:50:30, Drug Conc. 4.32 mg/ml) of 0.547 ×10⁻⁶ cm/s. For the same molecule, the Papp (in vitro; P, Vehicle LA:TEC:PG 20:50:30, Drug Conc. 44.7 mg/ml) was 0.41 ×10⁻⁶ cm/s, the Papp (in vitro; P, Vehicle LA:TEC:PG 20:60:20, Drug Conc. 19.35 mg/ml) was 0.66 ×10⁻⁶ cm/s and the Papp (in vitro; P, Vehicle LNA:PG:TA 20:15:65, Drug Conc. 8.15 mg/ml) was 2.6 ×10⁻⁶ cm/s. For the same molecule, the Papp (in vitro; P, Vehicle Oleic Acid:PG:TA 20:30:50, Drug Conc. 15.89 mg/ml) was 3 ×10⁻⁶ cm/s.

With `CC1CC(=O)NN=C1c1ccc(-n2ccnc2)cc1` (stereo not drawn) [Compound I Base] the “Lag Time” value ([1]; 0 % Linoleic Acid in propylene glycol, Conc'n. 26.38 mg/ml) was 6.2 h, the Flux ([1]; 0 % Linoleic Acid in propylene glycol, Conc'n. 26.38 mg/ml, expressed as hydrochloride salt) was 0.4 ug/cm^2/h and the “P Px*” value ([1]; 0 % Linoleic Acid in propylene glycol) was 1. The “Lag Time” value ([1]; 10 % Linoleic Acid in propylene glycol, Conc'n. 43 mg/ml) was 1.75 h, the Flux ([1]; 10 % Linoleic Acid in propylene glycol, Conc'n. 43 mg/ml, expressed as hydrochloride salt) was 492 ug/cm^2/h and the “P Px*” value ([1]; 10 % Linoleic Acid in propylene glycol) was 755. The “Lag Time” value ([1]; 40 % Linoleic Acid in propylene glycol, Conc'n. 43 mg/ml) was 1.45 h, the Flux ([1]; 40 % Linoleic Acid in propylene glycol, Conc'n. 43 mg/ml, expressed as hydrochloride salt) was 337.3 ug/cm^2/h and the “P Px*” value ([1]; 40 % Linoleic Acid in propylene glycol) was 517. For the same molecule, the “Lag Time” value ([1]; 80 % Linoleic Acid in propylene glycol, Conc'n. 43 mg/ml) was 1.29 h, the Flux ([1]; 80 % Linoleic Acid in propylene glycol, Conc'n. 43 mg/ml, expressed as hydrochloride salt) was 148.5 ug/cm^2/h and the “P Px*” value ([1]; 80 % Linoleic Acid in propylene glycol) was 227. For the same molecule, the “Lag Time” value ([1]; 100 % Linoleic Acid, Conc'n. 31.5 mg/ml) was 5.35 h, the Flux ([1]; 100 % Linoleic Acid, Conc'n. 31.5 mg/ml, expressed as hydrochloride salt) was 24.5 ug/cm^2/h and the “P Px*” value ([1]; 100 % Linoleic Acid) was 51. For the same molecule, the Flux [1, 3] was 130.14 ug/cm^2/h, the “Lag Time” value [1, 3] was 1.91 h and the “P Px*” value ([1]; Vehicle LA:TA:PG 20:50:30) was 400. The Flux ([1]; Vehicle LA:TG 20:80 (TG = tetraglycol), Conc'n. 20.09 mg/ml) was 186.69 ug/cm^2/h, the “Lag Time” value ([1]; Vehicle LA:TG 20:80, Conc'n. 20.09 mg/ml) was 5.58 h and the “P Px*” value ([1]; Vehicle LA:TG 20:80) was 614. It also gave a Papp (in vitro; Permeability Coefficient (P), 0 % Linoleic Acid in propylene glycol, Conc'n. 26.38 mg/ml) of 0.0042 ×10⁻⁶ cm/s, a Papp (in vitro; Permeability Coefficient (P), 10 % Linoleic Acid in propylene glycol, Conc'n. 43 mg/ml) of 3.18 ×10⁻⁶ cm/s and a Papp (in vitro; Permeability Coefficient (P), 40 % Linoleic Acid in propylene glycol, Conc'n. 43 mg/ml) of 2.18 ×10⁻⁶ cm/s. It also gave a Papp (in vitro; Permeability Coefficient (P), 80 % Linoleic Acid in propylene glycol, Conc'n. 43 mg/ml) of 0.96 ×10⁻⁶ cm/s, a Papp (in vitro; Permeability Coefficient (P), 100 % Linoleic Acid, Conc'n. 31.5 mg/ml) of 0.22 ×10⁻⁶ cm/s and a Papp (in vitro; Permeability Coefficient (P), Vehicle LA:TA:PG 20:50:30, Conc'n. 21.57 mg/ml) of 1.68 ×10⁻⁶ cm/s. It also gave a Papp (in vitro; Permeability Coefficient (P), Vehicle LA:TG 20:80, Conc'n. 20.09 mg/ml) of 2.58 ×10⁻⁶ cm/s and a Papp (in vitro; permeability coefficient) of 7.6 ×10⁻⁶ cm/s.

With `CN1CC[C@]23c4c5ccc(O)c4O[C@H]2C(=O)CC[C@@]3(O)[C@H]1C5` [OX, Oxymorphone] the “delivered from a 10 cm² patch in humans” value ([2]; loading concentration increased to 2%, four-fold increase in flux expected) was “about 12.8 mg/day”, the “delivery from a 10 cm² patch through human skin” value ([2]; loading concentration of 0.5%, assuming 1/5 the permeability) was “about 3.2 mg/day” and the Flux [1, 4] was 40.0 ug/cm^2/hr. For the same molecule, the “Lag Time” value [1, 4] was 7.6 h, the Flux [1, 5] was 51.5 ug/cm^2/hr and the “Lag Time” value [1, 5] was 4.1 h. The Flux [1, 6] was 66.6 ug/cm^2/hr, the “Lag Time” value [1, 6] was 3.5 h and the “delivery from a 10 cm² patch through hairless mouse skin” value ([1]; loading concentration of 0.5%, equivalent of flux 66.6 ug/cm²/hr) was “about 16 mg/day”. The Papp (in vitro; PX10^6, LA:PG:TA 5:30:65, 0.5 wt % analgesic, Conc. 5.5 mg/ml) was 2 ×10⁻⁶ cm/s, the Papp (in vitro; PX10^6, LA:PG:TA 10:30:60, 0.5 wt % analgesic, Conc. 5.4 mg/ml) was 2.7 ×10⁻⁶ cm/s and the Papp (in vitro; PX10^6, LA:PG:TA 20:30:50, 0.5 wt % analgesic, Conc. 5.3 mg/ml) was 3.5 ×10⁻⁶ cm/s.

With `CCC(NC(C)C)C(O)c1ccc(O)c2[nH]c(=O)ccc12` (stereo not drawn) [Procaterol Hydrochloride] the “daily flux in man” value [2] was 0.68 mg, the “Lag Time” value ([1]; Solvent System LA:PG:TA 20:30:50, approximate concentration 5 mg/ml) was 4.0 h and the Flux ([1]; Solvent System LA:PG:TA 20:30:50, approximate concentration 5 mg/ml, Hydrochloride) was 14 ug/cm^2/h. For the same molecule, the Flux ([1]; Solvent System LA:PG:TA 20:30:50, approximate concentration 5 mg/ml, listed as procaterol hydrochloride, Hydrochloride) was “about 14 ug/cm^2/h”, the flux value ([1]; formulation containing LA:PG:TA (20:30:50)) was 3.36 mg/day/10 cm² and the Papp (in vitro; P, Solvent System LA:PG:TA 20:30:50, approximate concentration 5 mg/ml) was 0.77 ×10⁻⁶ cm/s.
